We go through one substance from patent publication US7091351B2, “Vanadium compounds for treating cancer” (Parker Hughes Institute, priority 1998, dated 2006).

Where two headings read alike, the source gives them in different places.

Holding throughout (type): cell-based, human
Data set [1] has as its system NALM-6 cells. Put plainly: MTT cytotoxicity assay of oxovanadium(IV) compounds, NALM-6. Conditions: 48 hr. In a few lines:
(§1)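 Exponentially growing cells, 4×10^4 cells/well, were exposed to compound at 0.1 to 250 μM for 48 hours at 37° C in 5% CO2, in triplicate wells. MTT (0.5 mg/ml final) was added for 4 hours, formazan dissolved overnight in 10% SDS/0.01 M HCl and read at 540 nm. IC50 came from non-linear regression.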

Another data set has as its system NALM-6 leukemia cells. As to the kind of experiment: Mitochondrial transmembrane potential, DiIC1 staining, flow cytometry. The protocol: […] Mitochondrial membrane potential (ΔΨm) was measured using two dyes including a lipophollic cation 5,5′,6,6′-tetrachloro-1,1′,3,3′-tetraethlybenzimidazolylcarbocyanine iodide (JC-1; Molecular probes, Eugene, Oreg.) and a cyanine dye, 1,1′,3,3,3′,3′-hexamethylindodicarbocyanine iodide [DiIC1(5); Molecular probes] as earlier described (22). JC-1 can enter the cells, and selectively mitochondria, and has been used to assess ΔΨm in a variety of studies (23,24). JC-1 is a monomer at 527 nm after being excited at 490 nm; with polarization of ΔΨm, J-aggregates are formed that shift emission to 590 nm (23, 24). This can be detected on a flow cytometer by assessing the green signal (at 527 nm) and green-orange signal (at 590 nm) simultaneously, creating an index of the number of cells polarized and depolarized mitochondria. The treated and control cells were washed and plated in a 6-well plate at 1×10^6 cells in fresh medium. JC-1 was added at a concentration of 10 μg/ml, and cells were incubated for 10 min in the dark at room temp. Cells were then washed twice with ice-cold PBS and immediately analyzed using Becton Dickinson (San Jose, Calif.) Calibur flow cytometer. At least 2×10^3 cells were analyzed to determine the percentage of cells with polarized and depolarized mitochondria. DiIC1(5), a cyanine dye is amphioatheic and cationic that concentrate in energized mitochondria and has been used in a variety of studies to measure the mitochondrial membrane potential (25–27). NALM-6 cells were stained with DiIC1(5) at 40 nM concentration for 30 min in the dark as described for JC-1. The cells were analyzed using Vantage Becton Dickinson cell sorter equipped with HeNe laser with excitation at 635 nm and the fluorescence was collected at 666 nm.
(Flow cytometry measures light scatter and fluorescence of single cells or particles in a stream.)

The next data set has as its system BT20 breast cancer cells. As to the kind of experiment: Cytotoxic activity of oxovanadium(IV) compounds, BT20. Particulars: read-out: Cytotoxic Activity BT20. In a few lines: as §1
In data set [2] the test system is PC3 prostate cancer cells. Put plainly: Cytotoxic activity of oxovanadium(IV) compounds, PC3. Particulars: read-out: Cytotoxic Activity PC3. In a few lines: as §1
Data set [3] has as its system NALM-6 cells. As to the kind of experiment: Mitochondrial mass determination, NAO staining. Particulars: 0.1-1 μM, 24-96 hr. Here is the method:
Relative mitochondrial mass was measured by using Becton Dickinson Calibur flow cytometry and the fluorescent stain 10-n-nonyl-acridine orange (NAO), which binds the mitochondrial phospholipid cardiolipin, that has been extensively used to provide an index of mitochondrial mass (28). 1×10^6 compound 29-treated NALM-6 cells at concentrations of 0.1 μM to 1 μM for 24 hr, 48 hr, 72 hr, or 96 hr were incubated with 30 μM of NAO in complete medium for 10 min at room temp in the dark, washed with ice-cold PBS and analyzed using log scale photomultiplier to detect the green fluorescence at 527 nm. Relative change in the mitochondrial mass was measured using the mean fluorescence value of mitochondria of compound 29-treated and vehicle-treated cells.

As usually defined, the EC50 is the concentration at which the effect is half-maximal.

Take “bis(4,7-dimethyl-1,10-phenanthroline)sulfatooxovanadium(IV) [Compound 29]”: the IC50 with NALM-6 cells [1] amounted to 0.2 ± 0.03 µM; in the data set on BT20 breast cancer cells, 1.5 µM; in data set [2] it was 1.7 µM. Moreover, in the data set with NALM-6 leukemia cells (1 μM, 48 hours (vehicle 6.5%)), the “fraction of DiIC1-negative cells with depolarized mitochondria” value is 91.5%. Besides, the EC50 worked out at 3.6 µM in the data set with NALM-6 leukemia cells (24 hr treatment, read-out: average EC50 for depolarization of mitochondria (decreased DiIC1 staining), 24 hr); 0.3 µM in the data set on NALM-6 leukemia cells (48 hr treatment, read-out: average EC50 for depolarization of mitochondria (decreased DiIC1 staining), 48 hr); 0.08 µM with NALM-6 leukemia cells (72 hr treatment, read-out: average EC50 for depolarization of mitochondria (decreased DiIC1 staining), 72 hr). Further, in the data set with NALM-6 cells [3], the “mitochondrial mass (NAO staining intensity, treated versus untreated)” value is “virtually identical staining intensity of NAO”.
